For one compound, IC50 results are on record in paper PMC11995078, “Protocol for high-throughput screening of SIRT7 inhibitors using fluorescent peptide technology” (STAR Protocols, 2025).

The experiment deals with T1, Sirtuin 7 (SIRT7) (Homo sapiens, UniProt Q9NRC8).
T1 construct: his-tagged full length SIRT7 (pET-28a, E. coli BL21(DE3))
T1 sequence (Q9NRC8 1-400): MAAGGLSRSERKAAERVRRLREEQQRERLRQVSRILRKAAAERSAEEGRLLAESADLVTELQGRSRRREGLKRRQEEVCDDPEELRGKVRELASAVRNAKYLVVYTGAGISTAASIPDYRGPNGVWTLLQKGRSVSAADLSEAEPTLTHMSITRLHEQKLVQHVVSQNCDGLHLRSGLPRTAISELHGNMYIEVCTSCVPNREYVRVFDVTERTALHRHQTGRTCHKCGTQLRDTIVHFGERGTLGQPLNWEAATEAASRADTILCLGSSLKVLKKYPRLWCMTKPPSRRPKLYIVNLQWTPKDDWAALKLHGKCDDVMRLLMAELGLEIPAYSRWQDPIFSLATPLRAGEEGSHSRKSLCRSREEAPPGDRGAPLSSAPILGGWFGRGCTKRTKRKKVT
In words: fluorescent MCA-peptide (H3K18) deacylation assay with purified SIRT7, dose-response. The class given is biochemical.

Molecules are shown by their SMILES.

As for `COC(=O)/C(=C\C(=O)c1ccc(O)c(O)c1)c1ccc(O)c(O)c1` [YZL-51N], it took 12.7 µM to reach half-maximal inhibition (IC50).

Usually IC50 stands for the concentration that gives 50% inhibition. Lower therefore signals greater potency in that assay.
